Values joined by “and” are separate entries in the source; they are usually repeats but may differ in a detail not shown here. Equal entries are not always repeated.
System: LG0567-F671-PDC multi-cell spheroid viability
Assay: Anticancer human tumor LG0567-F671-PDC patient-derived lung adenocarcinoma cell line growth inhibition [IpAb]
Settings: for viability, T/C: stronger effect = lower value
From the text: Combinatorial screen of targeted agents with ipatasertib and abemaciclib in multi-cell type tumor spheroids
A high-throughput screen of multi-cell type tumor spheroids was designed to identify active combinations of targeted small molecules and ipatasertib or abemaciclib. Complex spheroids include a stromal component modeled by human endothelial cells (HUVEC) and fibroblasts modeled by human mesenchymal stem cells (MSCs). The concentration ranges selected for each drug and investigational agent were based upon clinically achievable concentrations if the clinical Cmax of the agent was known.
Compounds. The drugs and investigational agents: ipatasertib (NSC767898), abemaciclib(NSC768073), selumetinib (NSC741078), trametinib (758246), adavosertib (NSC754352), everolimus (NSC733504), sapanisertib (NSC764658), vemurafenib (NSC761431), venetoclax (NSC766270), copanlisib (NSC809693), apelisib (NSC765974), palbociblib (NSC758247), vemurafenib (NSC761431), dabrafenib (NSC764134), ravoxertinib (NSC781343), BMS-387032 (NSC767048), sotorasib (NSC818433), talazoparib (NSC767125) and afursertib (NSC778305), were obtained from the National Cancer Institute (NCI) Developmental Therapeutics Program Chemical Repository. The FDA-approved anticancer drug set is available from the NCI Developmental Therapeutics Program. […] The stock solutions were prepared in dimethyl sulfoxide (DMSO, Sigma-Aldrich, St. Louis, MO, cat. D2650) at 800-fold the tested concentration and stored at -70 degrees C prior to their use. All drugs and investigational agents were tested over a range starting from a high concentration at or near the clinical Cmax and decreasing in half-log increments. If the clinical Cmax for an agent had not been determined, the highest concentration tested was 10 microM.
NCI60 Cell Culture. NCI60 cell lines were obtained from the NCI Developmental Therapeutics Program Tumor Repository. For each lot of cells, the Repository performed Applied Biosystems AmpFLSTR Identifiler testing with PCR amplification to confirm consistency with the published Identifier STR profile for each cell line. Cells were kept in continuous culture for no more than 20 passages. The optimal seeding densities for each of the cell lines at each time point assessed were determined prior to performing the concentration response studies. Briefly, the NCI60 human tumor lines were grown as monolayers in RPMI 1640 medium supplemented with 10% FBS and 2 mmol/L L-glutamine.
An additional 9 lines were from the NCI60 cell line panel including MDA-MB-231 breast carcinoma, MDA-MB-468 breast carcinoma, MCF7 breast carcinoma, Hs578T breast carcinoma, MALME-3M melanoma, SK-MEL-2 melanoma, SK-OV-3 ovarian carcinoma, DU-145 prostate carcinoma, PC-3 prostate carcinoma, all cell lines along with major genetic alterations are listed on Table 2. Pooled donor human umbilical vein endothelial cells (HUVEC, Lonza, cat. CC-2519) and human mesenchymal stem cells (hMSC, Lonza, cat. PT-2501) were purchased from Lonza (Walkersville, MD).
PDMR cell lines were grown in complete medium (DC medium): Dulbecco's modified Eagle's medium (DMEM)/F12 supplemented with 5% fetal bovine serum (FBS), 2 mM L-glutamine, 100 U/mL penicillin and 100 µg/ml streptomycin, 0.4 µg/ml hydrocortisone, 10 ng/ml epidermal growth factor (EGF) recombinant human protein, 24 µg/mL adenine, and 0.1 mg/mL primocin. During culture from frozen stock vials, PDMR cells were cultured in the same medium containing 10 µM Y-27632 (see Table 3). The PDCs were cultured in complete DMEM/F12 media without 10 microM Y-27632 dihydrochloride for at least two passages prior to the screen. The pooled donor HUVEC and hMSC were cultured in endothelial cell growth medium 2 (PromoCell, Heidelberg, Germany, cat. C-22011) and mesenchymal stem cell growth medium 2 (PromoCell, cat. C-28009), respectively. For all experiments, HUVEC and hMSC were used at passages </=5.
[…]

[1] = compound alone, run of 06/01/2021
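Note: viability read after 7 days of drug exposure.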
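Throughout, for viability, T/C: 100% = DMSO vehicle control luminescence.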

C=CC(=O)N1CCN(c2nc(=O)n(-c3c(C)ccnc3C(C)C)c3nc(-c4c(O)cccc4F)c(F)cc23)C(C)C1 (centres undefined)
viability, T/C (compound 0.0316 µM): 26.6% and 19.1%
viability, T/C (compound 0.1 µM): 18.9% and 20.1%
viability, T/C (compound 0.316 µM): 19.7% and 18.1%
viability, T/C (compound 1 µM): 18.6% and 17.6%
viability, T/C (compound 3.16 µM): 16% and 20.2%
viability, T/C (compound 10 µM): 20.3% and 18.5%
IC50 (curve of compound): < 31.6 nM

C=CCn1c(=O)c2cnc(Nc3ccc(N4CCN(C)CC4)cc3)nc2n1-c1cccc(C(C)(C)O)n1
viability, T/C (compound 0.0316 µM): 101% and 104%
viability, T/C (compound 0.1 µM): 76.4% and 73.2%
viability, T/C (compound 0.316 µM): 46.1% and 54.2%
viability, T/C (compound 1 µM): 45.3% and 54%
viability, T/C (compound 3.16 µM): 37.1% and 57.6%
viability, T/C (compound 10 µM): 30.6% and 41.5%

CC(=O)c1c(C)c2cnc(Nc3ccc(N4CCNCC4)cn3)nc2n(C2CCCC2)c1=O
viability, T/C (compound 0.000949 µM): 95.7% and 102%
viability, T/C (compound 0.003 µM): 78.4% and 87.8%
viability, T/C (compound 0.00949 µM): 107% and 91.7%
viability, T/C (compound 0.03 µM): 68.7% and 76.1%
viability, T/C (compound 0.0949 µM): 91.7% and 72.5%
viability, T/C (compound 0.3 µM): 86.8% and 82.4%
IC50 (curve of compound): > 300 nM

CC(C)(C)c1cnc(CSc2cnc(NC(=O)C3CCNCC3)s2)o1
viability, T/C (compound 0.00949 µM): 110% and 111%
viability, T/C (compound 0.03 µM): 113% and 95.4%
viability, T/C (compound 0.0949 µM): 97.6% and 73.8%
viability, T/C (compound 0.3 µM): 6.76% and 3.49%
viability, T/C (compound 0.949 µM): 2.03% and 1.44%
viability, T/C (compound 3 µM): 0.9% and 0.89%
IC50 (curve of compound): 173 nM and 140 nM

CC(C)NCC(C(=O)N1CCN(c2ncnc3c2C(C)CC3O)CC1)c1ccc(Cl)cc1 (centres undefined)
viability, T/C (compound 0.316 µM): 71.7% [middle of 13 runs]
viability, T/C (compound 10 µM): 71.6% [middle of 13 runs]
IC50 [1]: > 10000 nM

CC(C)n1nc(-c2ccc3oc(N)nc3c2)c2c(N)ncnc21
viability, T/C (compound 0.000316 µM): 108% and 95.6%
viability, T/C (compound 0.001 µM): 79.7% and 87.8%
viability, T/C (compound 0.00316 µM): 90.1% and 102%
viability, T/C (compound 0.01 µM): 64% and 55.8%
viability, T/C (compound 0.0316 µM): 78.1% and 50%
viability, T/C (compound 0.1 µM): 66.9% and 56.8%
IC50 (curve of compound): > 100 nM

CC1(C)CCC(CN2CCN(c3ccc(C(=O)NS(=O)(=O)c4ccc(NCC5CCOCC5)c([N+](=O)[O-])c4)c(Oc4cnc5[nH]ccc5c4)c3)CC2)=C(c2ccc(Cl)cc2)C1
viability, T/C (compound 0.0316 µM): 96.3% and 101%
viability, T/C (compound 0.1 µM): 87.4% and 110%
viability, T/C (compound 0.316 µM): 86.8% and 105%
viability, T/C (compound 1 µM): 112% and 113%
viability, T/C (compound 3.16 µM): 145% and 143%
viability, T/C (compound 10 µM): 25.2% and 23%
IC50 (curve of compound): 7020 nM and 7120 nM

CCCS(=O)(=O)Nc1ccc(F)c(C(=O)c2c[nH]c3ncc(-c4ccc(Cl)cc4)cc23)c1F
viability, T/C (compound 0.0316 µM): 101% and 97.6%
viability, T/C (compound 0.1 µM): 117% and 154%
viability, T/C (compound 0.316 µM): 143% and 135%
viability, T/C (compound 1 µM): 138%
viability, T/C (compound 3.16 µM): 197% and 189%
viability, T/C (compound 10 µM): 215% and 179%
IC50 (curve of compound): > 10000 nM

CCN1CCN(Cc2ccc(Nc3ncc(F)c(-c4cc(F)c5nc(C)n(C(C)C)c5c4)n3)nc2)CC1
IC50 [1]: > 1000 nM

COc1c(OCCCN2CCOCC2)ccc2c3n(c(=NC(=O)c4cnc(N)nc4)nc12)CCN3
viability, T/C (compound 0.00316 µM): 102%
viability, T/C (compound 0.01 µM): 75.8% and 88.7%
viability, T/C (compound 0.0316 µM): 59.6% and 64.5%
viability, T/C (compound 0.1 µM): 48.8% and 42.4%
viability, T/C (compound 0.316 µM): 35.9% and 36.7%
viability, T/C (compound 1 µM): 33.4% and 31.1%
IC50 (curve of compound): 75 nM and 69.6 nM

Cc1nc(NC(=O)N2CCCC2C(N)=O)sc1-c1ccnc(C(C)(C)C(F)(F)F)c1 (centres undefined)
viability, T/C (compound 0.0316 µM): 85.2%
viability, T/C (compound 0.1 µM): 79.3% and 90.2%
viability, T/C (compound 0.316 µM): 59.3% and 74%
viability, T/C (compound 1 µM): 44.5% and 52.8%
viability, T/C (compound 3.16 µM): 66.8% and 49.1%
viability, T/C (compound 10 µM): 50.2% and 46.2%
IC50 (curve of compound): > 10000 nM and 1800 nM

Cn1cnc2c(F)c(Nc3ccc(Br)cc3Cl)c(C(=O)NOCCO)cc21
viability, T/C (compound 0.00949 µM): 54.7% and 48.5%
viability, T/C (compound 0.03 µM): 33% and 42.6%
viability, T/C (compound 0.0949 µM): 27.1% and 34.2%
viability, T/C (compound 0.3 µM): 25.2% and 24.2%
viability, T/C (compound 0.949 µM): 18.1% and 21.6%
viability, T/C (compound 3 µM): 16.5% and 16%
IC50 (curve of compound): 11.9 nM and < 9.49 nM

Cn1ncc(Cl)c1-c1cc(C(=O)NC(CN)Cc2cccc(F)c2)sc1Cl (centres undefined)
viability, T/C (compound 0.0316 µM): 111% and 97.3%
viability, T/C (compound 0.1 µM): 93% and 66%
viability, T/C (compound 0.316 µM): 52.6% and 62.1%
viability, T/C (compound 1 µM): 82.9% and 63%
viability, T/C (compound 3.16 µM): 53% and 45.6%
viability, T/C (compound 10 µM): 0.27% and 0.21%
IC50 (curve of compound): 2470 nM and 1660 nM

Cn1nccc1Nc1nccc(-c2ccn(C(CO)c3ccc(Cl)c(F)c3)c(=O)c2)n1 (centres undefined)
viability, T/C (compound 0.0316 µM): 96.4% and 76.2%
viability, T/C (compound 0.1 µM): 50.8% and 58.4%
viability, T/C (compound 0.316 µM): 45% and 40.1%
viability, T/C (compound 1 µM): 41.1% and 29.3%
viability, T/C (compound 3.16 µM): 33.5% and 35.7%
viability, T/C (compound 10 µM): 36.3% and 34.5%
IC50 (curve of compound): 138 nM and 166 nM

Cn1ncnc1[C@H]1c2n[nH]c(=O)c3cc(F)cc(c23)N[C@@H]1c1ccc(F)cc1
viability, T/C (compound 0.000316 µM): 113% and 103%
viability, T/C (compound 0.001 µM): 89.9% and 84.2%
viability, T/C (compound 0.00316 µM): 96.3% and 81.5%
viability, T/C (compound 0.01 µM): 69.8% and 66%
viability, T/C (compound 0.0316 µM): 42.7% and 73.8%
viability, T/C (compound 0.1 µM): 65.2% and 30.4%
IC50 (curve of compound): > 100 nM and 49.1 nM

Cn1cnc2c(F)c(Nc3ccc(Br)cc3Cl)c(C(=O)NOCCO)cc21 + CC(C)NCC(C(=O)N1CCN(c2ncnc3c2C(C)CC3O)CC1)c1ccc(Cl)cc1
IC50 (curve of first compound, second compound 0.1 µM): 15.7 nM
IC50 (curve of first compound, second compound 0.316 µM): < 9.49 nM
IC50 (curve of first compound, second compound 1 µM): < 9.49 nM
IC50 (curve of first compound, second compound 3.16 µM): < 9.49 nM
IC50 (curve of first compound, second compound 10 µM): < 9.49 nM
viability, T/C (second compound 0.1 µM, first compound 0.00949 µM): 59.6%
viability, T/C (second compound 0.1 µM, first compound 0.03 µM): 36.4%
viability, T/C (second compound 0.1 µM, first compound 0.0949 µM): 29.3%
viability, T/C (second compound 0.1 µM, first compound 0.3 µM): 18.2%
viability, T/C (second compound 0.1 µM, first compound 0.949 µM): 18.6%
viability, T/C (second compound 0.1 µM, first compound 3 µM): 11.1%
viability, T/C (second compound 0.316 µM, first compound 0.00949 µM): 43.4%
viability, T/C (second compound 0.316 µM, first compound 0.03 µM): 32.4%
viability, T/C (second compound 0.316 µM, first compound 0.0949 µM): 23.2%
viability, T/C (second compound 0.316 µM, first compound 0.3 µM): 18%
viability, T/C (second compound 0.316 µM, first compound 0.949 µM): 14.3%
viability, T/C (second compound 0.316 µM, first compound 3 µM): 5.52%
viability, T/C (second compound 1 µM, first compound 0.00949 µM): 34.6%
viability, T/C (second compound 1 µM, first compound 0.03 µM): 32.3%
viability, T/C (second compound 1 µM, first compound 0.0949 µM): 23.9%
viability, T/C (second compound 1 µM, first compound 0.3 µM): 21.3%
viability, T/C (second compound 1 µM, first compound 0.949 µM): 10.7%
viability, T/C (second compound 1 µM, first compound 3 µM): 8.24%
viability, T/C (second compound 3.16 µM, first compound 0.00949 µM): 44.9%
viability, T/C (second compound 3.16 µM, first compound 0.03 µM): 43.4%
viability, T/C (second compound 3.16 µM, first compound 0.0949 µM): 36.4%
viability, T/C (second compound 3.16 µM, first compound 0.3 µM): 16.4%
viability, T/C (second compound 3.16 µM, first compound 0.949 µM): 14.8%
viability, T/C (second compound 3.16 µM, first compound 3 µM): 7.66%
viability, T/C (second compound 10 µM, first compound 0.00949 µM): 43.4%
viability, T/C (second compound 10 µM, first compound 0.03 µM): 28.7%
viability, T/C (second compound 10 µM, first compound 0.0949 µM): 26.7%
viability, T/C (second compound 10 µM, first compound 0.3 µM): 21.5%
viability, T/C (second compound 10 µM, first compound 0.949 µM): 11.9%
viability, T/C (second compound 10 µM, first compound 3 µM): 8.12%
